Data published in patent publication US20230125052A1, “RED BLOOD CELL-DERIVED VESICLE” (Imperial College Innovations Limited, priority 2019, published 2023).
Values belong to the molecule of their own block, whether it stands above or below them. Square brackets hold non-standard residues; d marks the D form. Side chains are listed from the residue outwards. Ends that are not written are not given here. maleimidomethyl‑cyclohexane‑carboxamide = linker coupling the Cys to DSPE; DSPE = DSPE lipid anchoring the peptide in the vesicle membrane

Columns and labels:
[1] = tested on: ADP-induced platelet aggregation; assay: In vitro antiplatelet aggregation assay, ADP-induced; assay type: cell-based, sheep; settings: Ovis aries, equivalent ASA concentration of 0.1 mM, read-out: Percentage of inhibition of ADP-induced platelet aggregation
Protocol: (§1) The final platelet count was adjusted to 2 × 10^8 platelets/mL. 150 µL of PRP was seeded in 96-well plates and was incubated with 50 µL of various formulations: ASA-RBCVs, ASA-RGD-RBCVs, ASA-cRGD-PEG-RBCVs or ASA (equivalent ASA concentration of 0.1 mM) in the presence of 10 µL platelet agonist thrombin in PBS (4 µM), arachidonic acid (AA) in PBS (400 µM) or adenosine diphosphate (ADP) in PBS (15 µM). After incubation under shaking at 37° C. for 40 min, the absorbance at 595 nm was measured by a GloMax-Multi Microplate Multimode Reader (Promega, USA). The aggregation percentage was calculated by the equation 2. From the platelet aggregation percentage and comparison to aggregation of PBS without samples, the inhibition percentage was calculated by the equation 3.

[2] = tested on: thrombin-induced platelet aggregation; assay: In vitro antiplatelet aggregation assay, thrombin-induced; assay type: cell-based, sheep; settings: Ovis aries, equivalent ASA concentration of 0.1 mM, read-out: Percentage of inhibition of thrombin-induced platelet aggregation
Protocol: as §1

[3] = tested on: thrombin-induced thrombus in sheep blood; assay: In vitro antithrombotic assay (wet thrombus weight); assay type: cell-based; settings: equivalent ASA 0.1 mM, 37° C., 30 min
Protocol: 200 µL of sheep blood was added into a weighted tube. Then, 50 µL specific formulation (PBS, ASA-RBCVs, ASA-RGD-RBCVs, ASA-cRGD-PEG-RBCVs or ASA at an equivalent ASA concentration of 0.1 mM) was added in the tube, and then 10 µL of thrombin in PBS (4 µM) was added in each well and incubated at 37° C. under shaking for 30 min. Finally, the un-clotted blood was removed to obtain the weight of the wet clotted thrombus.

[4] = tested on: AA-induced platelet aggregation; assay: In vitro antiplatelet aggregation assay, arachidonic acid (AA)-induced; assay type: cell-based, sheep; settings: Ovis aries, equivalent ASA concentration of 0.1 mM, read-out: Percentage of inhibition of AA-induced platelet aggregation
Protocol: as §1

[5] = tested on: fibrinogen mediated platelet aggregation in platelet-rich plasma (active αIIbβ3); assay type: cell-based, sheep
Protocol: Binding affinity of free liner RGD or cRGD peptides to activated platelets can be indicated by a half maximal inhibitory concentration (IC50) value, which is the peptide concentration required to inhibit fibrinogen mediated platelet aggregation in platelet-rich plasma (PRP) by 50%. PRP was incubated with various concentrations of liner RGD or cRGD peptides in the presence of platelet agonist, thrombin (4 µM) for 30 min under stirring. The platelet aggregation percentage was determined with a GloMax-Multi Microplate Multimode Reader (Promega, USA) by measuring the absorbance at 595 nm. The platelet aggregation percentage was calculated by the following equation: […]
where Ao is the initial absorbance at 595 nm, and At is the absorbance at 595 nm after incubation.
The percentage platelet aggregation inhibition was calculated by the following equation: […]
where PAPBS is the platelet aggregation in the PRP control in the presence of thrombin and PBS only (no peptides), and PAs is the platelet aggregation in the PRP sample in the presence of thrombin and peptides.

[6] = target: active GPIIb-IIIa (αIIbβ3) integrin on thrombin-activated platelets (sheep); assay: cell-based or functional assay
active GPIIb-IIIa (αIIbβ3) integrin on thrombin-activated platelets (sheep), sequence (chain, as listed by the source, chain 1 of 2): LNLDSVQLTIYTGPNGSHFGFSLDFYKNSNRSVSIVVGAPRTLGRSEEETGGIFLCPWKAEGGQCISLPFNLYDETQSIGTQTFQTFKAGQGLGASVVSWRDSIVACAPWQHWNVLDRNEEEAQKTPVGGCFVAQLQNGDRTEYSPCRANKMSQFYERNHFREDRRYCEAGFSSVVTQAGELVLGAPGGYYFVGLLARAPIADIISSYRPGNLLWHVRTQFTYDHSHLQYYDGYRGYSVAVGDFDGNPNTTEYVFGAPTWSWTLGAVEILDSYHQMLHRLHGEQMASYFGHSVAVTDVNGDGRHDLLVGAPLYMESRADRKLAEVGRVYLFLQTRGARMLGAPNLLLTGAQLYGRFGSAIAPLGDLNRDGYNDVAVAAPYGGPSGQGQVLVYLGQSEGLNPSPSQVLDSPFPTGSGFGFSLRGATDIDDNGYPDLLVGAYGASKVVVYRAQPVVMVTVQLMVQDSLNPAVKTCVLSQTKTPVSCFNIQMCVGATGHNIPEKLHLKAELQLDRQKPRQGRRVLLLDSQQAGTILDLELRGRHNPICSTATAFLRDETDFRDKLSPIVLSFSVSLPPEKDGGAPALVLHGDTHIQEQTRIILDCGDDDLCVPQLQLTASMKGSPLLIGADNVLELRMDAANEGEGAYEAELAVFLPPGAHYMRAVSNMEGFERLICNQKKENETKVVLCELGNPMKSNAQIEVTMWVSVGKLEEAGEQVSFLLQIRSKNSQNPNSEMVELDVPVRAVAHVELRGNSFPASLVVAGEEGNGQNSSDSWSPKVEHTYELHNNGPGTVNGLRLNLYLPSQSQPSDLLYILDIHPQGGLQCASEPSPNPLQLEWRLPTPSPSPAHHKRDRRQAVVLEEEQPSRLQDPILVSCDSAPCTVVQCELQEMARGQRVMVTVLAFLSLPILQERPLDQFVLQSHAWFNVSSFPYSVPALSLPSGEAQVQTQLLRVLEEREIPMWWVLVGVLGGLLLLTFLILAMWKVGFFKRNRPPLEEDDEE
active GPIIb-IIIa (αIIbβ3) integrin on thrombin-activated platelets (sheep), sequence (chain, as listed by the source, chain 2 of 2): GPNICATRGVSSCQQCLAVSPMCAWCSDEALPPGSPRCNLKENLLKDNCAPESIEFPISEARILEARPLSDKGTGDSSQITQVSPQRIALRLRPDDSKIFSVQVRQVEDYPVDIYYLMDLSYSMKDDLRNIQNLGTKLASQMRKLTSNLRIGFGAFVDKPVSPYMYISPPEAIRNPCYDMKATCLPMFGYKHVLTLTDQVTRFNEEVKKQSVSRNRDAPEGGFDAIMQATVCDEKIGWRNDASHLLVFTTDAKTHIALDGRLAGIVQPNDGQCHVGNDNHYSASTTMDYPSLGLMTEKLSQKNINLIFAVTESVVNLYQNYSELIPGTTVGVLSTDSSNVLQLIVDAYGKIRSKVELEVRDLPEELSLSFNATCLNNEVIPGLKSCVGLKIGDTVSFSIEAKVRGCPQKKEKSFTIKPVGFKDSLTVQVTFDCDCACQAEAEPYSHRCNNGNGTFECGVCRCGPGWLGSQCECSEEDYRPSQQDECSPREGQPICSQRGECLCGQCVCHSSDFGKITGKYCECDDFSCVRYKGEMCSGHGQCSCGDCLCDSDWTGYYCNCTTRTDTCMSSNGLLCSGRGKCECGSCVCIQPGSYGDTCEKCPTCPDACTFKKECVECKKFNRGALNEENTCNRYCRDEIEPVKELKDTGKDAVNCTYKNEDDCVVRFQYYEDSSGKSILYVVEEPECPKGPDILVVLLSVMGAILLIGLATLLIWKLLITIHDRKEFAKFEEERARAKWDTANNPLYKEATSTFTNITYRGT

[7] = in circulation, background; cited from earlier work
[8] = tested on: Halo blood clots; assay: Blood clot lysis in a Halo blood clot model; assay type: cell-based, sheep; settings: after 45 min of treatment
Protocol: Briefly, a clotting mixture (5 mL of buffer containing 66 mM Tris-HCl, 130 mM NaCl and 45 mM CaCl2; 5 µL of 1 µM thrombin, pH 7.4) was freshly prepared. In a 96-well microplate, 5 µL of this clotting mixture was placed on one side of the well bottom, then 15 µL of whole blood was added on the opposite side of the well bottom. Clotting was initiated by mixing the two drops with a pipette tip in a circular motion to form a homogenous halo shape of blood around the edge of the well bottom, leaving the centre area empty. The plate was covered and incubated at 37° C. for 30 min. After clot formation, 80 µL tPA-RBCVs, tPA-RGD-RBCVs, tPA-cRGD-PEG-RBCVs and free tPA (equivalent tPA dose of 1 mg mL^-1) were added simultaneously into respective wells containing halo clots. The dissolution of the halo clots was determined with a plate reader GloMax-Multi Microplate Multimode Reader (Promega, USA) by measuring absorbance at 495 nm caused by RBCs progressively covering the centre of the well after clot degradation at 37° C. […] The percentage of clot dissolution was calculated according to the following equation: […]
where As is the absorbance of well at 495 nm after incubation with samples; An is the absorbance of negative control well at 495 nm; Ap is the absorbance of positive control well at 495 nm.

[9] = tested on: fibrin clot; assay: Fibrin clot lysis, agar plate assay, in the presence of activated platelets; assay type: biochemical; settings: equivalent tPA 1 mg mL^-1, 37° C. overnight, activated platelets present
Protocol: Fibrin clot lysis by the tPA-loaded vesicles was measured by an agar plate assay. Briefly, 300 mg agar was dissolved in buffer mixture (15 mL of 0.05 M Tris-HCl buffer at pH 7.2 and 5 mL of 0.025 M CaCl2 solution). 50 mg Fibrinogen was dissolved in 10 mL of Tris-HCl buffer (0.05 M, pH 7.2). The agar solution was mixed with the fibrinogen solution, and then 10 µL thrombin (4.0 µM) was added under stirring for 1 min. The resulting mixture was spread carefully on a transparent plastic plate and homogeneous gels were obtained at 37° C. after 3h. […] were created in each plate and 5 µL of plasminogen solution (1 mg mL^-1) was then added into each sample well. PBS buffer, tPA-RBCVs, tPA-RGD-RBCVs, tPA-cRGD-PEG-RBCVs and free tPA (equivalent tPA dose of 1 mg mL^-1) were added into respective sample wells and incubated at 37° C. overnight. The area of the lysed zone in each well was measured to evaluate the degree of fibrin clot lysis.

[10] = target: T1, active GPIIb-IIIa (αIIbβ3) integrin on thrombin-activated platelets (sheep, UniProt A0ACI6RZ73 32-1033; A0ACI6S117 125-886); assay: MFI of confocal images of thrombin-activated platelets; reference is uncoated tPA-RBCVs
T1 construct: whole, on cells; also called active αIIbβ3
T1 sequence (chain, as listed by the source, chain 1 of 2): as the sequence (chain, as listed by the source, chain 1 of 2) above
T1 sequence (chain, as listed by the source, chain 2 of 2): as the sequence (chain, as listed by the source, chain 2 of 2) above
Protocol: 2 mL platelets (1.0 × 10⁸ mL⁻¹) were seeded in 6-well plates, with a collagen-coated glass coverslip on the bottom of each well. After 30 min, 100 µL thrombin (1 U/mL) was added onto the platelet-adhered coverslips to ensure activation of platelets at least 20 min. Inactivated platelets or thrombin-activated platelets were incubated with various FITC-labelled tPA-loaded vesicle formulations (equivalent tPA concentration of 0.2 mg mL⁻¹). The platelets were then fixed with 4.0% formaldehyde for 30 min, followed by rinsing with pH 7.4 PBS buffer for three times. Subsequently, the resulting slides were mounted and observed with a Leica SP₅ MP confocal microscope.

[11] = target: T1, active GPIIb-IIIa (αIIbβ3) integrin on …; assay: flow cytometry on thrombin-activated platelets; reference is uncoated tPA-RBCVs
Protocol: (§2) 2 mL platelets (1.0 × 10⁸ mL⁻¹) were seeded in 6-well plates and activated by incubation with 100 µL thrombin (1 U/mL) for at least 20 min. Inactivated platelets or thrombin-activated platelets were incubated with various FITC-labelled tPA-loaded vesicle formulations (equivalent tPA concentration of 0.2 mg mL⁻¹). Free vesicles, which were not attached to platelets, were removed by centrifugation. Data for 1.0 × 10⁴ gated events were collected and analysed using a BD Fortessa II flow cytometer.

[12] = target: T1, active GPIIb-IIIa (αIIbβ3) integrin on …; assay: cell-based or functional assay
[13] = target: T1, active GPIIb-IIIa (αIIbβ3) integrin on …; assay: flow cytometry on thrombin-activated platelets; reference is uncoated RBCVs
Protocol: as §2, with “NBD-labelled RBCV” for “FITC-labelled tPA-loaded vesicle”, “NBD-PE” for “tPA concentration”, “1.0 × 10⁻⁷ mol).” for “0.2 mg mL⁻¹).”

[14] = target: T1, active GPIIb-IIIa (αIIbβ3) integrin on …; assay: MFI of confocal images of thrombin-activated platelets; reference is uncoated RBCVs

Molecule: CC(=O)Oc1ccccc1C(=O)O [ASA, acetylsalicylic acid]
inhibition at 100 µM [1]: 27.6 ± 2.71%
inhibition at 100 µM [2]: 20.5 ± 1.04%
Thrombus weight [3]: 49.27 ± 10.73 mg
inhibition at 100 µM [4]: 23.8 ± 4.26%

Molecule: CC(C)[C@@H]1NC(=O)[C@@H](Cc2ccccc2)NC(=O)[C@H](CC(=O)O)NC(=O)CNC(=O)[C@H](CCCNC(=N)N)NC1=O [cRGD, cyclo(Arg-Gly-Asp-d-Phe-Val)]
IC50 [5]: 460 µM

Molecule: tPA: Tissue plasminogen activator (tPA, alteplase), product of Boehringer Ingelheim
Half-life [7]: 2~6 min
Blood clot lysis (in words) [8]: complete blood clot lysis
Area of fibrin lysis ring [9]: 1.18 ± 0.17 cm^2

B3: RGD-coated red blood cell-derived vesicles without drug (RGD-RBCVs) (other)
peptide: C([maleimidomethyl‑cyclohexane‑carboxamide-DSPE])RGD
notes: Vesicle labelled with NBD-PE for flow cytometry and CLSM, or with NBD-PE and Rhod-PE for FRET; also called NBD-labelled RGD-RBCVs
fold increase in fluorescence intensity against NBD-labelled RBCVs [13]: > 4 fold
fold enhancement in binding affinity (MFI) against RBCVs [14]: ~4 fold

Second part, the molecule after the results:

IC50 (peptide concentration for 50% inhibition of fibrinogen-mediated platelet aggregation in PRP, thrombin 4 µM) [6]: 382 µM
Molecule: linear RGD peptide (Arg-Gly-Asp), free

fold enhancement in binding affinity (MFI) against tPA-RBCVs [10]: ~4 fold
fold increase in fluorescence intensity against FITC-labelled tPA-RBCVs [11]: > 4 fold
B1: tPA-loaded, RGD-coated red blood cell-derived vesicles (tPA-RGD-RBCVs) (other)
peptide: C([maleimidomethyl‑cyclohexane‑carboxamide-DSPE])RGD
modifications: also: many copies anchored in red blood cell-derived vesicle membrane, tPA encapsulated
notes: also called FITC-labelled tPA-RGD-RBCVs; fibrinogen-mimicking RBCV

IC50 (peptide concentration for 50% inhibition of fibrinogen-mediated platelet aggregation in PRP, thrombin 4 µM) [12]: 460 µM
B2: cyclo(Arg-Gly-Asp-d-Phe-Val), free (peptide)
peptide: cyclo(RGD[dF]V)
